≈ marks a conversion by molar mass, not a printed value.
Test system: Mycobacterium tuberculosis variant bovis
Assay: Antimycobacterial activity against Mycobacterium bovis 8 by serial dilution method
Type: functional

SMILES: NNC(=O)c1ccncc1 [ISONIAZID]
- MIC: 0.015 to 0.06 µg/mL (≈ 0.109 to 0.438 µM)

— ChEMBL document CHEMBL4052616, “Isoniazid derivatives and their anti-tubercular activity” (Eur J Med Chem, 2017)
